Experimental data reported in ChEMBL document CHEMBL1201862, “PubChem BioAssay data set” (2004).
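Briefly, cells in 96-well plates were exposed to five compound concentrations for 48 h, and endpoints were estimated by linear interpolation. The concentration for 50% growth inhibition is given as GI50.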 Active and inactive are the calls of the source. Cut-off read from the data, not from the text of the source: active = GI50 up to about 1.1 µM and inactive = higher.

Experiments:
Assay in all cases: NCI anticancer screen, dose series, 48 h
SNB-19 = tested on: SNB-19
SN12C = tested on: SN12C
EKVX = tested on: EKVX
786-0 = tested on: 786-0
SR = tested on: SR
NCI-H460 = tested on: NCI-H460
MCF7 = tested on: MCF7
CAKI-1 = tested on: CAKI-1
SF-268 = tested on: SF-268
SK-OV-3 = tested on: SK-OV-3
HT-29 = tested on: HT-29
OVCAR-3 = tested on: OVCAR-3
PC-3 = tested on: PC-3
UACC-62 = tested on: UACC-62
HL-60 = tested on: HL-60
UO-31 = tested on: UO-31
HOP-92 = tested on: HOP-92
LOX IMVI = tested on: LOX IMVI
RXF 393 = tested on: RXF 393
HCT-15 = tested on: HCT-15

| SMILES | GI50 (SNB-19) | GI50 (SN12C) | GI50 (EKVX) | GI50 (786-0) | GI50 (SR) | GI50 (NCI-H460) | GI50 (MCF7) | GI50 (CAKI-1) | GI50 (SF-268) | GI50 (SK-OV-3) | GI50 (HT-29) | GI50 (OVCAR-3) | GI50 (PC-3) | GI50 (UACC-62) | GI50 (HL-60) | GI50 (UO-31) | GI50 (HOP-92) | GI50 (LOX IMVI) | GI50 (RXF 393) | GI50 (HCT-15) [µM] |
| --- | --- | --- | --- | --- | --- | --- | --- | --- | --- | --- | --- | --- | --- | --- | --- | --- | --- | --- | --- | --- |
| c1ccc(CCNCc2ccco2)nc1 | > 100 µM (inactive) | > 100 µM (inactive) | > 100 µM (inactive) | > 100 µM (inactive) | 1 µM (active) | > 100 µM (inactive) | > 83.9 µM (inactive) | > 100 µM (inactive) | > 100 µM (inactive) | > 100 µM (inactive) | > 100 µM (inactive) | > 100 µM (inactive) | > 100 µM (inactive) | > 100 µM (inactive) | > 100 µM (inactive) | > 100 µM (inactive) | > 100 µM (inactive) | > 100 µM (inactive) | > 100 µM (inactive) | > 100 |
| OCCSCc1ccccc1 | > 100 µM (inactive) | > 100 µM (inactive) | > 100 µM (inactive) | > 100 µM (inactive) | > 100 µM (inactive) | > 100 µM (inactive) | > 100 µM (inactive) | > 100 µM (inactive) | > 100 µM (inactive) | > 100 µM (inactive) | > 100 µM (inactive) | > 100 µM (inactive) | > 100 µM (inactive) | > 100 µM (inactive) | > 100 µM (inactive) | > 100 µM (inactive) | > 100 µM (inactive) | > 100 µM (inactive) | > 100 µM (inactive) | > 100 |
| CC(C)(C)OC(=O)N1CC(CCl)c2ccc(O)cc21 (stereo not given) | 3.32 µM (inactive) | 3.23 µM (inactive) | 2.75 µM (inactive) | 3.74 µM (inactive) | 1.45 µM (inactive) | 2.67 µM (inactive) | 0.753 µM (active) | 2.97 µM (inactive) | 1.58 µM (inactive) | 5.05 µM (inactive) | 3.15 µM (inactive) | 2.51 µM (inactive) | 1.87 µM (inactive) | 2.01 µM (inactive) | 1.87 µM (inactive) | 2.29 µM (inactive) | 2.42 µM (inactive) | 1.76 µM (inactive) | 0.693 µM (active) | 2.59 |
| COCOC1/C=C/CCCCC(=O)C(C)C#CC1 (stereo not given) | 17.8 µM (inactive) | 6.27 µM (inactive) | 9.86 µM (inactive) | 2.09 µM (inactive) | 2.74 µM (inactive) | 7.13 µM (inactive) | 3.89 µM (inactive) | 5.09 µM (inactive) | 15.1 µM (inactive) | 15.8 µM (inactive) | 3.37 µM (inactive) | 4.13 µM (inactive) | 11.4 µM (inactive) | 2.4 µM (inactive) | 1.71 µM (inactive) | 5.7 µM (inactive) | 3.1 µM (inactive) | 2.19 µM (inactive) | 3.06 µM (inactive) | 2.36 |
| CCOC(=O)NC(OCCN(C)C)(C(F)(F)F)C(F)(F)F | > 100 µM (inactive) | > 100 µM (inactive) | > 100 µM (inactive) | > 100 µM (inactive) | > 100 µM (inactive) | > 100 µM (inactive) | > 100 µM (inactive) | > 100 µM (inactive) | > 100 µM (inactive) | > 100 µM (inactive) | > 100 µM (inactive) | > 100 µM (inactive) | > 100 µM (inactive) | > 100 µM (inactive) | > 100 µM (inactive) | > 100 µM (inactive) | > 100 µM (inactive) | > 100 µM (inactive) | 9.79 µM (inactive) | > 100 |
| CCCCCCCCCCCCCCCCCCNc1ccn(C2OC(CO)C(OP(=O)(O)OCC(COP(=O)(O)OCC3OC(n4cc(F)c(NCCCCCCCCCCCCCCCCCC)nc4=O)CC3O)OC(=O)CCCCCCCCCCCCCCC)C2O)c(=O)n1 (stereo not given) | > 100 µM (inactive) | > 100 µM (inactive) | > 100 µM (inactive) | > 100 µM (inactive) | > 100 µM (inactive) | > 100 µM (inactive) | > 100 µM (inactive) | > 100 µM (inactive) | > 100 µM (inactive) | > 100 µM (inactive) | > 100 µM (inactive) | > 100 µM (inactive) | > 100 µM (inactive) | > 100 µM (inactive) | 67.1 µM (inactive) | > 100 µM (inactive) | > 100 µM (inactive) | > 100 µM (inactive) | > 100 µM (inactive) | > 100 |
| CC(C)(C)C(=O)CC1(O)C=C(O)C(O)(CC(=O)C(C)(C)C)O1 (stereo not given) | 36.8 µM (inactive) | 14.7 µM (inactive) | 61.1 µM (inactive) | 4.86 µM (inactive) | 4.55 µM (inactive) | 10.1 µM (inactive) | 24.8 µM (inactive) | 13.6 µM (inactive) | 11.6 µM (inactive) | 29.9 µM (inactive) | 18.7 µM (inactive) | 59.4 µM (inactive) | 44.8 µM (inactive) | 26.5 µM (inactive) | 24.9 µM (inactive) | 29.4 µM (inactive) | 29.9 µM (inactive) | 12.5 µM (inactive) | 1.84 µM (inactive) | 8.77 |
| CC(=O)C(=Cc1ccc(C=C(C(C)=O)C(C)=O)cc1)C(C)=O | 2.1 µM (inactive) | 1.63 µM (inactive) | 5.31 µM (inactive) | 2.17 µM (inactive) | 0.238 µM (active) | 2.59 µM (inactive) | 1.87 µM (inactive) | 1.74 µM (inactive) | 1.41 µM (inactive) | 6.07 µM (inactive) | 1.2 µM (inactive) | 2.01 µM (inactive) | 1.9 µM (inactive) | 1.65 µM (inactive) | 0.31 µM (active) | 1.6 µM (inactive) | 2.12 µM (inactive) | 0.57 µM (active) | 1.9 µM (inactive) | 0.977 |
| CC(=O)O[C@H]1CC[C@@]2(C)C(=CC[C@@H]3[C@@H]2CC[C@]2(C)c4c(C)nn(-c5ccccc5)c4C[C@@H]32)C1 | 31 µM (inactive) | 33.3 µM (inactive) | 14.9 µM (inactive) | 13.6 µM (inactive) | 13 µM (inactive) | 13.8 µM (inactive) | 32.8 µM (inactive) | 20.9 µM (inactive) | 62.8 µM (inactive) | 20.6 µM (inactive) | 11.5 µM (inactive) | 28.7 µM (inactive) | 26.7 µM (inactive) | 18.5 µM (inactive) | 24.2 µM (inactive) | 19.4 µM (inactive) | 22.2 µM (inactive) | 12.3 µM (inactive) | 5.42 µM (inactive) | 37.1 |
| C=C(CN(CC)CC)C1(c2ccccc2)CC2(CCCC2)C(=O)O1 (stereo not given) | > 100 µM (inactive) | > 100 µM (inactive) | > 100 µM (inactive) | > 100 µM (inactive) | > 100 µM (inactive) | 68.7 µM (inactive) | > 100 µM (inactive) | > 100 µM (inactive) | > 100 µM (inactive) | > 100 µM (inactive) | 24.2 µM (inactive) | 82 µM (inactive) | 67 µM (inactive) | > 100 µM (inactive) | 40.6 µM (inactive) | > 100 µM (inactive) | 28.6 µM (inactive) | > 100 µM (inactive) | > 100 µM (inactive) | > 100 |
| CCNc1cc2c3c(c1)CCN3CCC2 | > 10 µM (inactive) | > 10 µM (inactive) | 5.86 µM (inactive) | > 10 µM (inactive) | 5.32 µM (inactive) | > 10 µM (inactive) | > 10 µM (inactive) | > 10 µM (inactive) | > 10 µM (inactive) | > 10 µM (inactive) | > 10 µM (inactive) | > 10 µM (inactive) | > 10 µM (inactive) | > 10 µM (inactive) | 3.23 µM (inactive) | > 10 µM (inactive) | > 10 µM (inactive) | > 10 µM (inactive) | > 10 µM (inactive) | > 10 |
| CC(C)OC(=S)Nc1ccc(Cl)c(/C=N/OC(C)(C)C)c1 | 20.7 µM (inactive) | 16.7 µM (inactive) | 15.4 µM (inactive) | 16.7 µM (inactive) | 20.4 µM (inactive) | 17.4 µM (inactive) | 22.9 µM (inactive) | 15.1 µM (inactive) | 19.3 µM (inactive) | 19.8 µM (inactive) | 14.4 µM (inactive) | 18.5 µM (inactive) | 20.1 µM (inactive) | 16.4 µM (inactive) | 16.4 µM (inactive) | 13.9 µM (inactive) | 12.2 µM (inactive) | 17.1 µM (inactive) | 14.5 µM (inactive) | 16.6 |
| C=C(C(=O)O[C@H]1C(=O)C2=C(C)CCC3C(=C)C(=O)O[C@@H]3C2[C@]1(C)O)C1CC[C@]2(C)CCCC(=C)[C@H]2C1 (stereo not given in full) | 13.1 µM (inactive) | 2.48 µM (inactive) | 7.98 µM (inactive) | 1.88 µM (inactive) | 7.4 µM (inactive) | 3.16 µM (inactive) | 3.32 µM (inactive) | 8.71 µM (inactive) | 5.6 µM (inactive) | 16.9 µM (inactive) | 4.24 µM (inactive) | 4.75 µM (inactive) | 5.45 µM (inactive) | 1.9 µM (inactive) | 2 µM (inactive) | 6.34 µM (inactive) | 5.08 µM (inactive) | 3.18 µM (inactive) | 0.0246 µM (active) | 3.48 |
| COc1cc2nc(-c3ccccc3F)nc(O)c2cc1OC | 63.8 µM (inactive) | > 100 µM (inactive) | > 100 µM (inactive) | > 100 µM (inactive) | > 100 µM (inactive) | 71.8 µM (inactive) | 86.9 µM (inactive) | > 100 µM (inactive) | > 100 µM (inactive) | > 100 µM (inactive) | 59.4 µM (inactive) | > 100 µM (inactive) | > 100 µM (inactive) | 60 µM (inactive) | > 100 µM (inactive) | 63.2 µM (inactive) | > 100 µM (inactive) | > 100 µM (inactive) | > 100 µM (inactive) | 49.2 |
